The source of these data is US7186831B2, “5-halo-2-alkyl[1,2,4]triazolo[1,5-a]pyrimidin-7-amines” (priority 2001, dated 2007).

Structures are written as SMILES.

One data set is described as follows: log P by HPLC. The data set is classed as physicochemical. Particulars: EEC directive 79/831 Annex V. A8 by HPLC (gradient method, acetonitrile/0.1% aqueous phosphoric acid).
As usually defined, the logP is a log measure of how a compound divides between an organic and an aqueous phase. Lower therefore signals lower lipophilicity. Compound `Cc1nc2nc(Cl)c(-c3c(F)cccc3F)c(NOCc3c(Cl)cccc3Cl)n2n1` [compound 435] had a lipophilicity (logP) of 3.31. `Cc1nc2nc(Cl)c(-c3c(F)cccc3F)c(NCC(C)(C)C)n2n1` [compound 329]: the logP came out at 3.27. The logP values of the last two compounds are within 0.2 log units of each other. In the case of `Cc1nc2nc(Cl)c(-c3ccc(F)cc3F)c(Nc3ccc(F)cc3)n2n1` [compound 299], the logP turned out to be 2.7. On the same count and under the same terms, the same measure for `Fc1cc(F)c(-c2c(Cl)nc3nc(C4CC4)nn3c2NC2CCCC2)c(F)c1` [compound 463]: 3.9; for `Cc1nc2nc(Cl)c(-c3c(F)cccc3F)c(N(C)CC3OCCO3)n2n1` [compound 332]: 2.43. Regarding `Cc1nc2nc(Cl)c(-c3ccccc3Cl)c(NCC#N)n2n1` [compound 403], the logP turned out to be 2.03.

`Cc1nc2nc(Cl)c(-c3ccc(F)cc3F)c(N(C)CC#N)n2n1` [compound 412] came in with a logP of 2.34. Still for that read-out and setting: the same measure for `C=CCN(C)c1c(-c2c(F)cccc2Cl)c(Cl)nc2nc(C)nn12` [compound 273]: 3.26; for `Cc1nc2nc(Cl)c(-c3ccc(F)cc3F)c(N3CCCC3)n2n1` [compound 281]: 2.74; for `CC(C)CNc1c(-c2ccccc2Cl)c(Cl)nc2nc(C3CC3)nn12` [compound 492]: 3.76. Regarding `CC(=O)NC1CCN(c2c(-c3ccc(F)cc3F)c(Cl)nc3nc(C4CC4)nn23)CC1` [compound 516], the logP worked out at 2.2.

Compound `CC1=CCCN(c2c(-c3ccc(F)cc3F)c(Cl)nc3nc(C)nn23)C1` [compound 291] showed a logP of 3.49. `Cc1nc2nc(Cl)c(-c3c(F)cccc3Cl)c(N3CCC(C)CC3)n2n1` [compound 262] showed a logP of 3.99. For `Cc1nc2nc(Cl)c(-c3ccccc3F)c(NOCc3ccc(C(F)(F)F)cc3)n2n1` [compound 365], the logP is 3.43. `Cc1nc2nc(Cl)c(-c3ccccc3F)c(NC(C)C3CCCCC3)n2n1` (stereo not drawn) [compound 396] returned a logP of 4.16. The same measure, in the same setting: the same measure for `CC(C)CN(C)c1c(-c2c(F)cc(F)cc2F)c(Cl)nc2nc(C3CC3)nn12` [compound 467]: 4.36; for `CCN(CC1CCCO1)c1c(-c2c(F)cccc2Cl)c(Cl)nc2nc(C)nn12` (stereo not drawn) [compound 268]: 3.29; for `Fc1cccc(Cl)c1-c1c(Cl)nc2nc(C3CC3)nn2c1NC1CCCC1` [compound 479]: 3.83.

In turn, `Cc1cccc(Nc2c(-c3c(F)cccc3F)c(Cl)nc3nc(C)nn23)c1` [compound 326] gave a logP of 2.89. `CCC(C)Nc1c(-c2c(F)cccc2Cl)c(Cl)nc2nc(C)nn12` (stereo not drawn) [compound 264] yielded a logP of 3.14. The compound `COC(=O)C1CCCCN1c1c(-c2c(F)cccc2F)c(Cl)nc2nc(C)nn12` (stereo not drawn) [compound 320] had a lipophilicity (logP) of 3.04. `Fc1ccc(-c2c(Cl)nc3nc(C4CC4)nn3c2N2CCSCC2)c(F)c1` [compound 519] registered a logP of 3.58.

In the case of `Cc1nc2nc(Cl)c(-c3c(F)cc(F)cc3F)c(NC(C)C(C)C)n2n1` (stereo not drawn) [compound 523], the logP came out at 3.38. In the case of `CC1CCCN1c1c(-c2c(F)cc(F)cc2F)c(Cl)nc2nc(C3CC3)nn12` (stereo not drawn) [compound 471], the log partition coefficient (logP) was 3.9. `CCN(CCOC)c1c(-c2c(F)cc(F)cc2F)c(Cl)nc2nc(C3CC3)nn12` [compound 470] gave a logP of 3.64. The compound `Cc1ccc(Nc2c(-c3ccc(F)cc3F)c(Cl)nc3nc(C4CC4)nn23)cc1` [compound 521] displayed a logP of 3.6. This logP and that of the compound before are within 0.2 log units of each other.

Still in this data set, the particulars now being: HPLC, gradient method, acetonitrile/0.1% aqueous phosphoric acid; EEC directive 79/831 Annex V. A8.
The compound `CC(C)CC(C)Nc1c(-c2ccc(F)cc2F)c(Cl)nc2nc(C3CC3)nn12` (stereo not drawn) [compound 660] came in with a lipophilicity (logP) of 4.24. Compound `Cc1nc2nc(Cl)c(-c3c(F)cccc3Cl)c(N3CCOCC3)n2n1` [compound 246] came in with a logP of 2.48. Same read-out and setting: the same measure for `CCc1nc2nc(Cl)c(-c3c(F)cc(F)cc3F)c(N3CCSCC3)n2n1` [compound 80]: 3.53.

`CCC1=CCN(c2c(-c3ccc(F)cc3F)c(Cl)nc3nc(C(F)(F)F)nn23)CC1` [compound 801]: the logP is given as 4.95. Compound `CNc1c(-c2c(F)cc(F)cc2F)c(Cl)nc2nc(C(F)(F)F)nn12` [compound 108] returned a logP of 3.17. `COCCNc1c(-c2ccc(F)cc2F)c(Cl)nc2nc(C3CC3)nn12` [compound 654] displayed a logP of 2.75. Turning to `CC(C)C(C)Nc1c(-c2ccc(Cl)cc2Cl)c(Cl)nc2nc(C3CC3)nn12` (single isomer, unassigned) [compound 756], the logP amounted to 4.72. `CC1=CCCN(c2c(-c3ccc(F)cc3F)c(Cl)nc3nc(C(F)(F)F)nn23)C1` [compound 802] displayed a logP of 4.55. The logP values of the last two compounds are within 0.2 log units of each other. Compound `CC1CCN(c2c(-c3ccc(F)cc3F)c(Cl)nc3nc(C(F)(F)F)nn23)CC1` [compound 798] showed a logP of 4.8.

Turning to `CC(C)C(C)Nc1c(-c2ccc(Cl)cc2Cl)c(Cl)nc2nc(C3CC3)nn12` (single isomer, unassigned) [compound 758], the logP is 4.72. `Cc1nc2nc(Cl)c(-c3c(F)cc(F)cc3F)c(N3OCCCC3C)n2n1` (stereo not drawn) [compound 686] returned a logP of 3.42. `C=C(C)CN(CC)c1c(-c2c(F)cc(F)cc2F)c(Cl)nc2nc(C)nn12` [compound 14] came in with a logP of 3.83. On the same count and under the same terms, the same measure for `CCC(C)Nc1c(-c2c(F)cccc2F)c(Cl)nc2nc(C)nn12` (stereo not drawn) [compound 187]: 2.82; for `FC(F)CNc1c(-c2ccc(Cl)cc2Cl)c(Cl)nc2nc(C3CC3)nn12` [compound 741]: 3.42; for `Cc1nc2nc(Cl)c(-c3c(F)cccc3F)c(N3CCC(C(F)(F)F)CC3)n2n1` [compound 180]: 3.36. Take `CC(=O)NC1CCN(c2c(-c3ccc(F)cc3F)c(Cl)nc3nc(C(F)(F)F)nn23)CC1` [compound 806]: the logP was found to be 2.71. Take `Cc1nc2nc(Cl)c(-c3ccc(Cl)cc3Cl)c(N(N)CC(C)C)n2n1` [compound 816]: the log partition coefficient (logP) is 3.71. `CN(C)C1CCN(c2c(-c3ccc(F)cc3F)c(Cl)nc3nc(C(F)(F)F)nn23)C1` (stereo not drawn) [compound 795] gave a logP of 1.67.

For the compound `CCC(C)Nc1c(-c2ccccc2Cl)c(Cl)nc2nc(C)nn12` (stereo not drawn) [compound 212], the lipophilicity (logP) amounted to 3.09. For the compound `CC(C)Nc1c(-c2ccccc2Cl)c(Cl)nc2nc(C3CC3)nn12` [compound 17], the lipophilicity (logP) turned out to be 3.39. `CCN(CCOC)c1c(-c2ccc(F)cc2Cl)c(Cl)nc2nc(C3CC3)nn12` [compound 631]: the logP was found to be 3.81. Take `Cc1nc2nc(Cl)c(-c3ccc(F)cc3F)c(NC3CC3)n2n1` [compound 199]: the logP is 2.45. Compound `Cc1nc2nc(Cl)c(-c3c(F)cc(F)cc3F)c(NC3CCCC3)n2n1` [compound 62] showed a logP of 3.23. `Cc1nc2nc(Cl)c(-c3c(F)cccc3F)c(NOC3CCCCO3)n2n1` (stereo not drawn) [compound 142]: the logP is 2.54. Consider `CC(NNc1c(-c2ccc(F)cc2Cl)c(Cl)nc2nc(C3CC3)nn12)C1CC1` (stereo not drawn) [compound 620], for which the logP turned out to be 3.81. `Cc1nc2nc(Cl)c(-c3c(F)cccc3Cl)c(NC3CCCC3)n2n1` [compound 255]: the logP was determined as 3.29. The compound `CCc1nc2nc(Cl)c(-c3c(F)cc(F)cc3F)c(NCC3CC3)n2n1` [compound 81] registered a logP of 3.23. Still for that read-out and setting: the same measure for `Cc1nc2nc(Cl)c(-c3ccc(Cl)cc3Cl)c(N3CCCCN3)n2n1` [compound 784]: 3.35.
